Target: T1, human Werner helicase (WRN-BV08, Uniprot Q14191, amino acids 517-1235 with L1074F point mutation) (Homo sapiens, UniProt Q14191, L1074F)
T1 construct: Uniprot Q14191, amino acids 517-1235 with L1074F point mutation; TEV-cleavable 8×His (C, cleaved yes); made in house; host or cells: Sf9 insect cells (baculovirus)
Assay: WRN (BV08) ADP-Glo Assay
Type: biochemical
Conditions: 0.15 nM WRN, 5 μM ATP, 0.1 nM DNA duplex, 15 min preincubation, 60 min at 25° C., pH 7.5, 1% DMSO; read-out: ADP-Glo_hWRN_IC50
In short: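 Percent inhibition was normalised to DMSO (max) and 20 μM NSC-617145 (min) controls from ADP-Glo luminescence, and IC50 values came from a four-parameter fit. The reaction ran 60 min at 25 °C with 0.15 nM WRN, 5 μM ATP and 0.1 nM duplex DNA.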

T1 sequence (Q14191 with tags, fused parts or gaps L1074F limits assumed): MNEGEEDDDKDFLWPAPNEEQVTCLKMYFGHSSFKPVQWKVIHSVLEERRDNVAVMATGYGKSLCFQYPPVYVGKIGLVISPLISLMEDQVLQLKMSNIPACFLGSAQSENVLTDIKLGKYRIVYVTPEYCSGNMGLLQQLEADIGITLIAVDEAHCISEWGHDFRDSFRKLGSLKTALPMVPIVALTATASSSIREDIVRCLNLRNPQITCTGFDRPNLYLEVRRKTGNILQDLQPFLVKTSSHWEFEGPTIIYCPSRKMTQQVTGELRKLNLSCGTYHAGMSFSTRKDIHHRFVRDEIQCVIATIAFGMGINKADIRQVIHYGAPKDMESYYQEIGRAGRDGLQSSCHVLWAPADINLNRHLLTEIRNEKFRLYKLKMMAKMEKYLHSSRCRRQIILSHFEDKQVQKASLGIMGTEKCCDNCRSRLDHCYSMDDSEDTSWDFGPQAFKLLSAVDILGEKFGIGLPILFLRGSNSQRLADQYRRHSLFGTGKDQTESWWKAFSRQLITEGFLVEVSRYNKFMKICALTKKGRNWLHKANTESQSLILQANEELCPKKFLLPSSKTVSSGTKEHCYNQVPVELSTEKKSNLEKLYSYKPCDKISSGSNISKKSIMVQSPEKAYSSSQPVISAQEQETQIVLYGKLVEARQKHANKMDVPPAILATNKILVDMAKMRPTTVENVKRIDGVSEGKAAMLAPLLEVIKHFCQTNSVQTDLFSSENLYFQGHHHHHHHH

| SMILES | IC50 |
| --- | --- |
| CSc1ccc(CC(=O)N(Cc2ccncc2)C2C=CS(=O)(=O)C2)cc1 (stereo not shown) [I-339, N-(1,1-dioxo-2,3-dihydro-1lambda6-thiophen-3-yl)-2-[4-(methylsulfanyl)phenyl]-N-[(pyridin-4-yl)methyl]acetamide] | 10 to 50 µM |
| O=C(Cc1ccc(-c2ccccc2)cn1)N(Cc1ccccc1)C1C=CS(=O)(=O)C1 (stereo not shown) [I-341, N-benzyl-N-(1,1-dioxo-2,3-dihydro-1lambda6-thiophen-3-yl)-2-(5-phenylpyridin-2-yl)acetamide] | 10 to 50 µM |
| O=C(Cc1ccc(-n2cccc2)cc1)N(Cc1noc(C2CC2)n1)C1C=CS(=O)(=O)C1 (stereo not shown) [I-342, N-[(5-cyclopropyl-1,2,4-oxadiazol-3-yl)methyl]-N-(1,1-dioxo-2,3-dihydro-1lambda6-thiophen-3-yl)-2-[4-(1H-pyrrol-1-yl)phenyl]acetamide] | 10 to 50 µM |
| COc1cc(CN(C(=O)CCc2ccc(S(F)(F)(F)(F)F)cc2)C2C=CS(=O)(=O)C2)ccn1 (stereo not shown) [I-343, N-(1,1-dioxo-2,3-dihydro-1lambda6-thiophen-3-yl)-N-[(2-methoxypyridin-4-yl)methyl]-3-[4-(pentafluoro-lambda6-sulfanyl)phenyl]propanamide] | 10 to 50 µM |
| CS(=O)(=O)Nc1cccc(CN(C(=O)Cc2ccc(-n3cccc3)cc2)C2C=CS(=O)(=O)C2)c1 (stereo not shown) [I-344, N-(1,1-dioxo-2,3-dihydro-1lambda6-thiophen-3-yl)-N-[(3-methanesulfonamidophenyl)methyl]-2-[4-(1H-pyrrol-1-yl)phenyl]acetamide] | 10 to 50 µM |
| COc1cc(-c2ccc(F)cc2)ccc1CC(=O)N(Cc1ccncc1)C1C=CS(=O)(=O)C1 (stereo not shown) [I-345, N-(1,1-dioxo-2,3-dihydro-1lambda6-thiophen-3-yl)-2-{4′-fluoro-3-methoxy-[1,1′-biphenyl]-4-yl}-N-[(pyridin-4-yl)methyl]acetamide] | 10 to 50 µM |
| O=C(Cc1ccc(C23CC(C2)C3)cc1)N(Cc1ccncc1)C1C=CS(=O)(=O)C1 (stereo not shown) [I-347, 2-(4-{bicyclo[1.1.1]pentan-1-yl}phenyl)-N-(1,1-dioxo-2,3-dihydro-1lambda6-thiophen-3-yl)-N-[(pyridin-4-yl)methyl]acetamide] | 10 to 50 µM |
| N#Cc1cc(F)ccc1-c1ccc(CC(=O)N(Cc2ccncc2)C2C=CS(=O)(=O)C2)cc1 (stereo not shown) [I-348, 2-{2′-cyano-4′-fluoro-[1,1′-biphenyl]-4-yl}-N-(1,1-dioxo-2,3-dihydro-1lambda6-thiophen-3-yl)-N-[(pyridin-4-yl)methyl]acetamide] | 10 to 50 µM |
| O=C(Cn1nc(-c2ccc(F)cc2)oc1=O)N(Cc1ccncc1)C1C=CS(=O)(=O)C1 (stereo not shown) [I-349, N-(1,1-dioxo-2,3-dihydro-1lambda6-thiophen-3-yl)-2-[5-(4-fluorophenyl)-2-oxo-2,3-dihydro-1,3,4-oxadiazol-3-yl]-N-[(pyridin-4-yl)methyl]acetamide] | 10 to 50 µM |
| O=C(Cc1ccc(-c2ccc(F)cc2)cc1CO)N(Cc1ccncc1)C1C=CS(=O)(=O)C1 (stereo not shown) [I-350, N-(1,1-dioxo-2,3-dihydro-1lambda6-thiophen-3-yl)-2-[4′-fluoro-3-(hydroxymethyl)-[1,1′-biphenyl]-4-yl]-N-[(pyridin-4-yl)methyl]acetamide] | 10 to 50 µM |
| O=C(Cc1ccc(S(=O)(=O)C(F)F)cc1)N(Cc1ccncc1)C1C=CS(=O)(=O)C1 (stereo not shown) [I-351, 2-(4-difluoromethanesulfonylphenyl)-N-(1,1-dioxo-2,3-dihydro-1lambda6-thiophen-3-yl)-N-[(pyridin-4-yl)methyl]acetamide] | 10 to 50 µM |
| O=C(O)c1cccc(CN(C(=O)Cc2ccc(-n3cccc3)cc2)C2C=CS(=O)(=O)C2)c1 (stereo not shown) [I-352, 3-{[N-(1,1-dioxo-2,3-dihydro-1lambda6-thiophen-3-yl)-2-[4-(1H-pyrrol-1-yl)phenyl]acetamido]methyl}benzoic acid] | 10 to 50 µM |
| O=C(Cc1cc(-c2ccccc2)on1)N(Cc1ccncc1)C1C=CS(=O)(=O)C1 (stereo not shown) [I-354, N-(1,1-dioxo-2,3-dihydro-1lambda6-thiophen-3-yl)-2-(5-phenyl-1,2-oxazol-3-yl)-N-[(pyridin-4-yl)methyl]acetamide] | 10 to 50 µM |
| Cc1ccn(-c2ccc(CC(=O)N(Cc3ccncc3)C3C=CS(=O)(=O)C3)cc2)c1 (stereo not shown) [I-355, N-(1,1-dioxo-2,3-dihydro-1lambda6-thiophen-3-yl)-2-[4-(3-methyl-1H-pyrrol-1-yl)phenyl]-N-[(pyridin-4-yl)methyl]acetamide] | 10 to 50 µM |
| COC(C(=O)N(Cc1ccncc1)C1C=CS(=O)(=O)C1)c1ccc(-c2ccc(C)cc2)cc1 (stereo not shown) [I-356, N-(1,1-dioxo-2,3-dihydro-1lambda6-thiophen-3-yl)-2-methoxy-2-{4′-methyl-[1,1′-biphenyl]-4-yl}-N-[(pyridin-4-yl)methyl]acetamide] | 10 to 50 µM |
| COCC(C(=O)N(Cc1ccnc(OC)c1)C1C=CS(=O)(=O)C1)n1cc(-c2ccccc2)cn1 (stereo not shown) [I-357, N-(1,1-dioxo-2,3-dihydro-1lambda6-thiophen-3-yl)-3-methoxy-N-[(2-methoxypyridin-4-yl)methyl]-2-(4-phenyl-1H-pyrazol-1-yl)propanamide] | 10 to 50 µM |

| SMILES | IC50 |
| --- | --- |
| O=C(Cc1ccc(-n2cccc2)cc1)N(Cc1cccnc1)C1C=CS(=O)(=O)C1 (stereo not shown) [I-358, N-(1,1-dioxo-2,3-dihydro-1lambda6-thiophen-3-yl)-N-[(pyridin-3-yl)methyl]-2-[4-(1H-pyrrol-1-yl)phenyl]acetamide] | 10 to 50 µM |
| O=C(Cc1ccc(C2CC(F)(F)C2)cc1)N(Cc1ccncc1)C1C=CS(=O)(=O)C1 (stereo not shown) [I-359, 2-[4-(3,3-difluorocyclobutyl)phenyl]-N-(1,1-dioxo-2,3-dihydro-1lambda6-thiophen-3-yl)-N-[(pyridin-4-yl)methyl]acetamide] | 10 to 50 µM |
| O=C(Cc1ccc(-n2cccc2)cc1)N(Cc1ccccc1CO)C1C=CS(=O)(=O)C1 (stereo not shown) [I-360, N-(1,1-dioxo-2,3-dihydro-1lambda6-thiophen-3-yl)-N-{[2-(hydroxymethyl)phenyl]methyl}-2-[4-(1H-pyrrol-1-yl)phenyl]acetamide] | 10 to 50 µM |
| O=C(Cc1ccc(-n2cccc2)cc1)N(Cc1ccc2nccn2c1)C1C=CS(=O)(=O)C1 (stereo not shown) [I-361, N-(1,1-dioxo-2,3-dihydro-1lambda6-thiophen-3-yl)-N-({imidazo[1,2-a]pyridin-6-yl}methyl)-2-[4-(1H-pyrrol-1-yl)phenyl]acetamide] | 10 to 50 µM |
| COc1cc(CN(C(=O)Cc2ccc(-c3cscn3)cc2F)C2C=CS(=O)(=O)C2)ccn1 (stereo not shown) [I-363, N-(1,1-dioxo-2,3-dihydro-1lambda6-thiophen-3-yl)-2-[2-fluoro-4-(1,3-thiazol-4-yl)phenyl]-N-[(2-methoxypyridin-4-yl)methyl]acetamide] | 10 to 50 µM |
| Cc1cccn1-c1ccc(CC(=O)N(Cc2cncnc2)C2C=CS(=O)(=O)C2)c(F)c1 (stereo not shown) [I-364, N-(1,1-dioxo-2,3-dihydro-1lambda6-thiophen-3-yl)-2-[2-fluoro-4-(2-methyl-1H-pyrrol-1-yl)phenyl]-N-[(pyrimidin-5-yl)methyl]acetamide] | 10 to 50 µM |
| CC(C)Oc1ccc(CC(=O)N(Cc2ccncc2)C2C=CS(=O)(=O)C2)cc1 (stereo not shown) [I-365, N-(1,1-dioxo-2,3-dihydro-1lambda6-thiophen-3-yl)-2-[4-(propan-2-yloxy)phenyl]-N-[(pyridin-4-yl)methyl]acetamide] | 10 to 50 µM |
| O=C(Cc1ccc(C(F)(F)F)nc1)N(Cc1ccncc1)C1C=CS(=O)(=O)C1 (stereo not shown) [I-367, N-(1,1-dioxo-2,3-dihydro-1lambda6-thiophen-3-yl)-N-[(pyridin-4-yl)methyl]-2-[6-(trifluoromethyl)pyridin-3-yl]acetamide] | 10 to 50 µM |
| O=C(CCc1c[nH]c2cc(F)ccc12)N(Cc1ccncc1)C1C=CS(=O)(=O)C1 (stereo not shown) [I-368, N-(1,1-dioxo-2,3-dihydro-1lambda6-thiophen-3-yl)-3-(6-fluoro-1H-indol-3-yl)-N-[(pyridin-4-yl)methyl]propanamide] | 10 to 50 µM |
| O=C(Cc1ccc(-n2cccc2)cc1)N(Cc1ccc[nH]c1=O)C1C=CS(=O)(=O)C1 (stereo not shown) [I-369, N-(1,1-dioxo-2,3-dihydro-1lambda6-thiophen-3-yl)-N-[(2-oxo-1,2-dihydropyridin-3-yl)methyl]-2-[4-(1H-pyrrol-1-yl)phenyl]acetamide] | 10 to 50 µM |
| O=C(Cc1ccc(-c2nn[nH]n2)cc1)N(Cc1ccncc1)C1C=CS(=O)(=O)C1 (stereo not shown) [I-370, N-(1,1-dioxo-2,3-dihydro-1lambda6-thiophen-3-yl)-N-[(pyridin-4-yl)methyl]-2-[4-(2H-1,2,3,4-tetrazol-5-yl)phenyl]acetamide] | > 50 µM |
| O=C(Cc1nc(C(F)(F)F)cs1)N(Cc1ccncc1)C1C=CS(=O)(=O)C1 (stereo not shown) [I-371, N-(1,1-dioxo-2,3-dihydro-1lambda6-thiophen-3-yl)-N-[(pyridin-4-yl)methyl]-2-[4-(trifluoromethyl)-1,3-thiazol-2-yl]acetamide] | > 50 µM |
| O=C(Cc1ccc(-n2cccc2)cc1)N(Cc1ccccc1N1CCC(O)C1)C1C=CS(=O)(=O)C1 (stereo not shown) [I-372, N-(1,1-dioxo-2,3-dihydro-1lambda6-thiophen-3-yl)-N-{[2-(3-hydroxypyrrolidin-1-yl)phenyl]methyl}-2-[4-(1H-pyrrol-1-yl)phenyl]acetamide] | > 50 µM |
| O=C(Cc1ccc(-n2cccc2)cc1)N(Cc1ccccc1)C1C=C(CO)S(=O)(=O)C1 (stereo not shown) [I-373, N-benzyl-N-[5-(hydroxymethyl)-1,1-dioxo-2,3-dihydro-1lambda6-thiophen-3-yl]-2-[4-(1H-pyrrol-1-yl)phenyl]acetamide] | > 50 µM |
| COCc1cc(-c2ccc(F)cc2)ccc1CC(=O)N(Cc1ccncc1)C1C=CS(=O)(=O)C1 (stereo not shown) [I-376, N-(1,1-dioxo-2,3-dihydro-1lambda6-thiophen-3-yl)-2-[4′-fluoro-3-(methoxymethyl)-[1,1′-biphenyl]-4-yl]-N-[(pyridin-4-yl)methyl]acetamide] | > 50 µM |
